In ChEMBL document CHEMBL5325432, “Systematic study of 1,2,3-triazolyl sterols for the development of new drugs against parasitic Neglected Tropical Diseases” (Eur J Med Chem, 2023):

Legend:
[1] = system: Leishmania donovani; assay: Antileishmanial activity against Leishmania donovani S1 promastigotes assessed as parasite growth inhibition incubated for 72 hrs by Alamar blue assay; format: functional, organism-based; details: S1, 72 h
[2] = system: Trypanosoma cruzi; assay: Antiparasitic activity against Trypanosoma cruzi epimastigotes assessed as parasite growth inhibition incubated for 14 days by Alamar blue assay; format: functional, organism-based; details: 336 h
[3] = Cytotoxicity against African green monkey Vero cells incubated for 48 hrs; format: toxicity, cell-based; details: African green monkey (Chlorocebus sabaeus)
[4] = Selectivity index, ratio of IC50 for cytotoxicity against African green monkey Vero cells to IC50 for antileishmanial activity against Leishmania donovani S1 promastigotes assessed as parasite growth inhibition; format: toxicity, cell-based; details: read-out: Ratio IC50
[5] = Selectivity index, ratio of IC50 for cytotoxicity against African green monkey Vero cells to IC50 for antiparasitic activity against Trypanosoma brucei assessed as parasite growth inhibition; format: toxicity, cell-based; details: read-out: Ratio IC50
[6] = system: Trypanosoma brucei; assay: Antiparasitic activity against Trypanosoma brucei assessed as parasite growth inhibition incubated for 3 days by Alamar blue assay; format: functional, organism-based; details: 72 h
[7] = Selectivity index, ratio of IC50 for cytotoxicity against African green monkey Vero cells to IC50 for antiparasitic activity against Trypanosoma cruzi epimastigotes assessed as parasite growth inhibition; format: toxicity, cell-based; details: read-out: Ratio IC50
[8] = Cytotoxicity against human MRC5 cells incubated for 7 days by MTT colorimetric assay; format: toxicity, cell-based

IC50 [2] [nM] | IC50 [6] [nM] | SMILES | IC50 [1] [nM] | IC50 at 48 h [3] [nM] | selectivity ratio [4] | selectivity ratio [5] | selectivity ratio [7] | IC50 at 7 days [8] [nM]
9000 | 650 | CC(C)=CCC/C(C)=C/Cn1cc(CNC[C@](C)(O)[C@H]2CC[C@H]3[C@@H]4CC=C5C[C@@H](O)CC[C@]5(C)[C@H]4CC[C@@]32C)nn1 | 780 | > 8850 | > 11.4 | > 13.6 | > 0.98 | 
8130 | 630 | CCCCCCCCn1cc(CNC[C@](C)(O)[C@H]2CC[C@H]3[C@@H]4CC=C5C[C@@H](O)CC[C@]5(C)[C@H]4CC[C@@]32C)nn1 | 1460 | > 9240 | > 6.33 | > 14.7 | > 1.14 | 
1950 | 550 | CCCCCCCCn1cc(CN[C@@H](C)[C@H]2CC[C@H]3[C@@H]4CC=C5C[C@@H](O)CC[C@]5(C)[C@H]4CC[C@]23C)nn1 | 1470 | > 9790 | > 6.67 | > 17.8 | > 5.02 | 
6480 | 1820 | C[C@@H](NCc1cn(CCCc2ccccc2)nn1)[C@H]1CC[C@H]2[C@@H]3CC=C4C[C@@H](O)CC[C@]4(C)[C@H]3CC[C@]12C | 1940 | > 9420 | > 5 | > 5.18 | > 1.45 | 
2220 | 1430 | C[C@H](NCc1cn(CCCc2ccccc2)nn1)[C@H]1CC[C@H]2[C@@H]3CC=C4C[C@@H](O)CC[C@]4(C)[C@H]3CC[C@]12C | 1350 | > 9680 | > 7.14 | > 6.77 | > 4.36 | 
2470 | 1770 | C[C@@H](NCc1cn(Cc2ccccc2)nn1)[C@H]1CC[C@H]2[C@@H]3CC=C4C[C@@H](O)CC[C@]4(C)[C@H]3CC[C@]12C | 6140 | > 10200 | > 1.67 | > 5.78 | > 4.14 | 
7800 | 660 | CCOC(=O)Cn1cc(CN[C@@H](C)[C@H]2CC[C@H]3[C@@H]4CC=C5C[C@@H](OC(C)=O)CC[C@]5(C)[C@H]4CC[C@]23C)nn1 | 4900 | > 9490 | > 1.94 | > 14.4 | > 1.22 | 
330 | 680 | C[C@H](NCc1cn(Cc2ccccc2)nn1)[C@H]1CC[C@H]2[C@@H]3CC=C4C[C@@H](O)CC[C@]4(C)[C@H]3CC[C@]12C | 1330 | > 10200 | > 7.69 | > 15 | > 31 | 
 |  | Nc1nc(N)nc(Nc2ccc([As]3SCC(CO)S3)cc2)n1 (stereo unspecified) [MELARSOPROL] |  |  |  | 62.5 |  | 12500
6300 | 200 | CC(=O)O[C@H]1CC[C@@]2(C)C(=CC[C@H]3[C@@H]4CC[C@H]([C@H](C)NCc5cn(CCCc6ccccc6)nn5)[C@@]4(C)CC[C@@H]32)C1 | 2990 | > 8950 | > 2.99 | > 44.7 | > 1.42 | 
3170 | 640 | CC(C)=CCC/C(C)=C/Cn1cc(CN[C@@H](C)[C@H]2CC[C@H]3[C@@H]4CC=C5C[C@@H](O)CC[C@]5(C)[C@H]4CC[C@]23C)nn1 | 1680 | > 9350 | > 5.56 | > 14.6 | > 2.95 | 
8280 | 120 | C[C@]12CC[C@H]3[C@@H](CC=C4C[C@@H](O)CC[C@@]43C)[C@@H]1CC[C@@H]2[C@@](C)(O)CNCc1cn(Cc2ccccc2)nn1 | 1950 | > 9640 | > 4.95 | > 80.3 | > 1.16 | 
2550 | 200 | CC(=O)O[C@H]1CC[C@@]2(C)C(=CC[C@H]3[C@@H]4CC[C@H]([C@H](C)NCc5cn(Cc6ccccc6)nn5)[C@@]4(C)CC[C@@H]32)C1 | 2540 | > 9420 | > 3.7 | > 47.1 | > 3.69 | 
